The record followed here is patent publication US12479839B2, “Crystalline form of ATR inhibitor and use thereof” (Wuxi Biocity Biopharmaceutics Co., Ltd., priority 2019, dated 2025).

A short description of series [1]: In vivo pharmacokinetic study in female Balb/c Nude mice. Also on record: species or system mouse. As for the experimental part: Experimental procedure: The purpose of this study is to determine the pharmacokinetic parameters of the compound and calculate its gavage bioavailability in female Balb/c Nude mice.
Six female Balb/c Nude mice were used in this project, three mice were injected intravenously, with the dosage of 1 mg/kg, where plasma samples at 0 h (before administration) and at 0.0833, 0.25, 0.5, 1, 2, 4, 6, 8 and 24 h after administration were collected, and the other three mice were administered intragastrically with the dose of 10 mg/kg or 25 mg/kg, where plasma samples at 0 h (before administration) and at 0.5, 1, 2, 3, 4, 6, 8, 24 h after administration were collected. LC-MS/MS analysis was performed on the collected samples and data were collected. The collected analysis data were calculated with Phoenix WinNonlin 6.2.1 software for relevant pharmacokinetic parameters.
Note: C0 (nM) is the concentration of the drug in the body at 0 min; Cl (mL/min/kg) is the clearance rate of the drug in the body; Vdss (L/kg) is the volume of distribution of the drug in the body; T1/2 (h) is the half-life; AUC0-t (nM·h) is the amount of drug exposure in the body; Cmax (nM) is the highest concentration of the drug in the body; F is the bioavailability.

A short description of series [2]: Solid physical stability tests of Crystal Form A under different temperature, humidity and light conditions. Type of series: physicochemical. The note with it: Day 10, XRPD. As for the experimental part: Four samples of Crystal Form A were weighed in parallel, each about 100 mg, placed on the bottom of a glass sample bottle and spread into a thin layer. The samples were sealed with aluminum foil paper, and some small holes were pierced in the aluminum foil paper to ensure that the sample can fully contact with the ambient air. Four prepared samples were placed in 25° C./92.5% relative humidity, 60° C., 40° C./75% and light conditions, respectively, and the physical stability of the samples on the 10th day was investigated. At the same time, a sample of about 100 mg of Crystal Form A was weighed separately, placed on the bottom of the glass sample bottle, sealed with a screw cap, and stored at −20° C. for use as control. On the 10th day, all the samples were taken out, returned to room temperature, and the appearance changes of the samples were observed. XRPD was used to detect the sample crystal forms. By comparing the accelerated samples with the control sample, the solid physical stability of Crystal Form A of the compound of formula (I) was determined.

A short description of series [3]: Solid stability test of Crystal Form A under high temperature and high humidity. The settings on record: 40° C./75% humidity. Format: physicochemical. The protocol:
Two samples of Crystal Form A were weighed in parallel, each about 100 mg, placed on the bottom of a glass sample bottle and spread into a thin layer. The samples were sealed with aluminum foil paper, and some small holes were pierced in the aluminum foil paper to ensure that the sample can fully contact with the ambient air. The samples were placed at a constant temperature and humidity box under the condition of 40° C./75% humidity. The samples under the above conditions were sampled and tested on day 30, and the test results were compared with the initial test result on day 0.

Series [4] is described as follows: Solid stability tests of Crystal Form B under high temperature, high humidity and light conditions. Format: physicochemical. The source says:
The samples were sealed with aluminum foil paper, and some small holes were pierced in the aluminum foil paper to ensure that the sample can fully contact with the ambient air. The samples were placed in a constant temperature and humidity or light box under different humidity conditions. […] The test results were compared with the initial test results on day 0.

For the molecule `Cc1cnn(C)c1-c1cc(N2CCOC[C@H]2C)nc(-c2cc(CO)cc3[nH]ccc23)n1` [Compound of formula (1)], the F in series [1] (10 mg/kg intragastric) is 129.0%. Further, the AUC in series [1] (mouse, plasma, 1 mg/kg IV, read-out: AUC04) came to 1.09 µM·h.
As for `Cc1cnn(C)c1-c1cc(N2CCOC[C@H]2C)nc(-c2cc(CO)cc3[nH]ccc23)n1` [Crystal Form A], the “Crystal Form” value in series [2] (25° C./92.5% relative humidity (open)), in series [2] (40° C./75% relative humidity (open)), in series [2] (60° C. (open)), in series [2] (light), in series [2] (−20° C. sealed (control)) and in series [3] (day 0) was “Form A” in each case. Further, in series [3] (day 30), the “Crystal Form” value is listed as “Form A”. Also, the Appearance result in series [3] (day 0) and in series [3] (day 30) was “White” in each case. The Content in series [3] (day 0) is 99.61%; in series [3] (day 30) it was 99.59%. Also, the Total impurity in series [3] (day 0) was found to be 0.39%; in series [3] (day 30), 0.45%.
`Cc1cnn(C)c1-c1cc(N2CCOC[C@H]2C)nc(-c2cc(CO)cc3[nH]ccc23)n1` [Crystal Form B]: the Content stood at 98.4% in series [4] (25° C./65% RH, 3 month); 99.8% in series [4] (25° C./65% RH, 6 month); 99.0% in series [4] (25° C./65% RH, day 0); 99.0% in series [4] (25° C./92.5% RH, day 0); 98.9% in series [4] (25° C./92.5% RH, day 5); 100.1% in series [4] (25° C./92.5% RH, day 10). Besides, the Content in series [4] (25° C./92.5% RH, day 30) was found to be 99.7%; in series [4] (40° C./75% RH, 1 month), 100.6%; in series [4] (40° C./75% RH, 2 month), 100.4%; in series [4] (40° C./75% RH, 3 month), 98.8%; in series [4] (40° C./75% RH, 6 month) it was 99.8%; in series [4] (40° C./75% RH, day 0) it was 99.0%. The Content in series [4] (60° C., day 0) was 99.0%; in series [4] (60° C., day 5) it was 101.5%; in series [4] (60° C., day 10), 101.6%; in series [4] (60° C., day 30) it was 99.4%; in series [4] (light, day 0), 99.0%; in series [4] (light, day 5) it was 101.0%. In addition, the Content in series [4] (light, day 10) is recorded as 100.7%. In addition, the “Crystal Form” value is “Crystal Form B” in series [4] (25° C./65% RH, 3 month); “Crystal Form B” in series [4] (25° C./65% RH, 6 month); “Crystal Form B” in series [4] (25° C./65% RH, day 0); “Crystal Form B” in series [4] (25° C./92.5% RH, day 0); “Crystal Form B” in series [4] (25° C./92.5% RH, day 5); “Crystal Form B” in series [4] (25° C./92.5% RH, day 10). For the same molecule, the “Crystal Form” value in series [4] (25° C./92.5% RH, day 30) is “Crystal Form B”; in series [4] (40° C./75% RH, 1 month) it was “Crystal Form B”; in series [4] (40° C./75% RH, 2 month) it was “Crystal Form B”; in series [4] (40° C./75% RH, 3 month), “Crystal Form B”; in series [4] (40° C./75% RH, 6 month), “Crystal Form B”; in series [4] (40° C./75% RH, day 0), “Crystal Form B”. The “Crystal Form” value is reported as “Crystal Form B” in series [4] (60° C., day 0); “Crystal Form B” in series [4] (60° C., day 5); “Crystal Form B” in series [4] (60° C., day 10); “Crystal Form B” in series [4] (60° C., day 30); “Crystal Form B” in series [4] (light, day 0); “Crystal Form B” in series [4] (light, day 5). Also, the “Crystal Form” value in series [4] (light, day 10) was “Crystal Form B”. The Total impurity in series [4] (25° C./65% RH, 3 month) is 0.45%; in series [4] (25° C./65% RH, 6 month), 0.43%; in series [4] (25° C./65% RH, day 0), 0.42%; in series [4] (25° C./92.5% RH, day 0), 0.42%; in series [4] (25° C./92.5% RH, day 5), 0.44%; in series [4] (25° C./92.5% RH, day 10), 0.41%. The Total impurity in series [4] (25° C./92.5% RH, day 30) worked out at 0.41%; in series [4] (40° C./75% RH, 1 month) it was 0.45%; in series [4] (40° C./75% RH, 2 month), 0.42%; in series [4] (40° C./75% RH, 3 month), 0.44%; in series [4] (40° C./75% RH, 6 month), 0.43%; in series [4] (40° C./75% RH, day 0), 0.42%. In addition, the Total impurity in series [4] (60° C., day 0) was determined as 0.42%; in series [4] (60° C., day 5), 0.43%; in series [4] (60° C., day 10), 0.39%; in series [4] (60° C., day 30) it was 0.41%; in series [4] (light, day 0) it was 0.42%; in series [4] (light, day 5), 0.44%. For the same molecule, the Total impurity in series [4] (light, day 10) is 0.42%.
